Laboratory results reported in patent US4749683A, “Inhibition of gastric acid secretion with alpha-transforming growth factor” (President and Fellows of Harvard College, priority 1986, dated 1988).
Values joined by “and” are separate entries in the source; they are usually repeats but may differ in a detail not shown here. Equal entries are not always repeated.

Test system: guinea pig gastric mucosa
Test: Histamine-induced gastric acid secretion of isolated guinea pig gastric mucosa in Ussing chambers, pH stat method
Assay type: cell-based, guinea pigs
Details: for Ratio of pre- and post histamine treatment acid secretion (mean SEM): relative to 30 minute period prior to histamine
Protocol: Unfasted female guinea pigs (205-330 g) were killed by cervical dislocation and the stomachs were removed. The antrum was discarded and the stomach was rinsed clean with several washes of mammalian Ringer's solution at 37° C. The stomach was hemisected along the greater and lesser curvatures and the mucosa was separated from the seromuscularis with a pair of fine forceps. Mucosae from both sides were stretched and separately mounted in Lucite Ussing chambers (diameter 1.6 cm) and the assembled chambers were connected to water jacketted gas-lift incubators. The nutrient (submucosal) surface was bathed in 15 ml of a solution containing: 122 mM NaCl, 25.0 mM NaHCO3, 5.0 mM KCl, […] MgSO4, 2.0 mM CaCl2, 1.0 mM KH2 PO4, 20.0 mM glucose, and 100 ug/ml gentamycin sulphate (Garamycin). The solution was gassed with 95% O2 -5% CO2 bubbled through distilled water which maintained pH at 7.45-7.55. The luminal (mucosal) surface was bathed in 15 ml unbuffered saline (150 mM NaCl) which was gassed with 100% O2 passed through 500 mM NaOH to remove CO2. Gastric acid secretion was measured by the pH stat method. pH was held at 4.5 with a pH stat coupled to an autoburette and acid secretion was determined by the amount of NaOH necessary to maintain pH in the luminal solution. All solutions were maintained at 37° C. with a heated water circulator. Tissues were initially allowed to stabilize in the chambers a minimum of 2 hours. Saline with or without alpha TGF (60 ng/ml final concentration) was then added to the nutrient bath and the basal rate of acid secretion was monitored for 30 minutes. Twenty-one paired sets of tissue specimens from the same animal were employed, one receiving alpha-TGF, the other serving as control. All tissues were then treated with histamine (10^-4 M) and acid secretion was measured for an additional 3 hours. When calculated in terms of absolute levels of acid secretion, differences between control and TGF-treated tissues were significant (p<0.05) at 120, 150, and 180 minutes.

alpha-transforming growth factor [TGF] was tested, and the “Ratio of pre- and post histamine treatment acid secretion (mean SEM)” value (“Ratio … (mean SEM)” below) (0 min., alpha TGF 60 ng/ml) was 1.00 ± 0.00, the “Gastric acid secretion (mean ± SEM)” value (0 time, basal rate before histamine, alpha TGF 60 ng/ml in nutrient bath, n=21) was 1.80 ± 0.21 uEq./cm^2 /hr and the “Gastric acid secretion (mean ± SEM)” value (30 min. after histamine 10^-4 M, alpha TGF 60 ng/ml) was 2.09 ± 0.24 uEq./cm^2 /hr. For the same substance, the “Ratio … (mean SEM)” value (30 min., alpha TGF 60 ng/ml) was 1.17 ± 0.04, the “Effect on the basal rate of acid secretion” value (30 minutes before histamine, alpha TGF 60 ng/ml) was “no effect” and the “Ratio … (mean SEM)” value (60 min. (one hour), alpha TGF 60 ng/ml) was 1.48 ± 0.11 and 1.49±0.11. For the same substance, the “Gastric acid secretion (mean ± SEM)” value (60 min. after histamine 10^-4 M, alpha TGF 60 ng/ml) was 2.62 ± 0.35 uEq./cm^2 /hr, the “Gastric acid secretion (mean ± SEM)” value (90 min. after histamine 10^-4 M, alpha TGF 60 ng/ml) was 2.97 ± 0.38 uEq./cm^2 /hr and the “Ratio … (mean SEM)” value (90 min., alpha TGF 60 ng/ml) was 1.67 ± 0.12. For the same substance, the “Ratio … (mean SEM)” value (120 min. (two hours), alpha TGF 60 ng/ml) was 1.68 ± 0.11, the “Gastric acid secretion (mean ± SEM)” value (120 min. after histamine 10^-4 M, alpha TGF 60 ng/ml) was 2.97 ± 0.35 uEq./cm^2 /hr and the “Gastric acid secretion (mean ± SEM)” value (150 min. after histamine 10^-4 M, alpha TGF 60 ng/ml) was 3.04 ± 0.37 uEq./cm^2 /hr. The “Ratio … (mean SEM)” value (150 min., alpha TGF 60 ng/ml) was 1.73 ± 0.12, the “Ratio … (mean SEM)” value (180 min. (three hours), alpha TGF 60 ng/ml) was 1.81 ± 0.27 and the “Gastric acid secretion (mean ± SEM)” value (180 min. after histamine 10^-4 M, alpha TGF 60 ng/ml) was 3.16 ± 0.68 uEq./cm^2 /hr.
